The assay addresses human MER (528-end) (Homo sapiens (Human), UniProt Q12866). Put plainly: HTRF Kinase Activity Biochemical Assay (KinEASE-TK). As to conditions: 10 uM ATP. The method, then:
For the SAR (structure-activity relationship) and compound screening, HTRF (Homogeneous Time Resolved Fluorescence) kinase activity assay was employed for all MER, AXL and TYRO3 kinases using Cisbio HTRF® KinEASE™-TK kit (Cisbio, USA). The kit includes biotin-labeled TK substrate, streptavidin-XL665, Eu3+-cryptate-labeled TK antibody and HTRF® Detection buffer. There are two main steps in the kinase assay: kinase reaction and detection of phosphorylated substrate. The reaction was carried out in white low volume 384-well plate (Corning, USA) with 25 nL compound in dimethyl sulfoxide in each well. […] Then the reaction was stopped after 1 hour incubation at room temperature by adding 5 uL of HTRF® Detection buffer which also contains 0.375 nM Eu3+-cryptate-labeled TK antibody and 0.062 uM streptavidin-XL665(SA-XL665) to allow for detection of the phosphorylated peptide product. After 1 h incubation at room temperature, the fluorescence intensity was measured with Envision™ plate reader (PerkinElmer, USA). Upon excitation at 340 nm by UV, the energy from Eu3+ donor of the antibody is transferred to the FRET acceptor XL665, and […] emits light at 665 nm. The level of kinase activity was quantified by the HTRF ratio that calculated from the intensity of emission at 665 nm and emission at 620 nm (fluorescence intensity @ 665 nm/fluorescence intensity @ 620 nm×10,000). The recombinant protein of human MER (528-end) was purchased from Carnabio, Japan. The recombinant human AXL (473-end) and TYRO3 (455-end) were purchased from SignalChem, Canada.

human MER (528-end), sequence (Q12866 528-999 limits assumed): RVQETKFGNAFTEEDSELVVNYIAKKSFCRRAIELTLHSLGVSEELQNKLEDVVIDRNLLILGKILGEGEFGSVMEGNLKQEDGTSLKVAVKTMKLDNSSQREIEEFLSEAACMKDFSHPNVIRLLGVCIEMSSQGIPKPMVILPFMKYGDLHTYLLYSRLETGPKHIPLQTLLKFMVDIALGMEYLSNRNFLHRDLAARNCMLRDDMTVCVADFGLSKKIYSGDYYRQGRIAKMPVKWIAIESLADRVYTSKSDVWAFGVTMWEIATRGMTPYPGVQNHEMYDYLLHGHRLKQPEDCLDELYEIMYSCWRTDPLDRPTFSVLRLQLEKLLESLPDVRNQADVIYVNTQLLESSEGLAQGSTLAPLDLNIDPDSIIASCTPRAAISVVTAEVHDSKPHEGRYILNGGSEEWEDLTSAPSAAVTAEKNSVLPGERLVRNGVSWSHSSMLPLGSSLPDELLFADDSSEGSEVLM

As to `Cn1cc(-c2cnc(N)c(C(=O)N[C@@H]3CCN(C(=O)Oc4ccccc4C#N)C3)c2)cn1` [Example 62, 2-cyanophenyl (R)-3-(2-amino-5-(1-methyl-1H-pyrazol-4-yl)nicotinamido)pyrrolidine-1-carboxylate], the IC50 was more than 1000 nM.

In the case of `COc1cc(Br)ccc1OC(=O)N1CC[C@@H](NC(=O)c2cc(-c3cnn(C)c3)cnc2N)C1` [Example 63, 4-bromo-2-methoxyphenyl (R)-3-(2-amino-5-(1-methyl-1H-pyrazol-4-yl)nicotinamido)pyrrolidine-1-carboxylate], the IC50 was more than 1000 nM.

`COC(=O)c1cccc(OC(=O)N2CC[C@@H](NC(=O)c3cc(-c4cnn(C)c4)cnc3N)C2)c1` [Example 64, 3-(methoxycarbonyl)phenyl (R)-3-(2-amino-5-(1-methyl-1H-pyrazol-4-yl)nicotinamido)pyrrolidine-1-carboxylate]: the IC50 is more than 1000 nM.

As for `COC(=O)c1ccc(OC)cc1OC(=O)N1CC[C@@H](NC(=O)c2cc(-c3cnn(C)c3)cnc2N)C1` [Example 65, 5-methoxy-2-(methoxycarbonyl)phenyl (R)-3-(2-amino-5-(1-methyl-1H-pyrazol-4-yl)nicotinamido)pyrrolidine-1-carboxylate], the IC50 was more than 1000 nM.

In turn, `Cn1cc(-c2cnc(N)c(C(=O)N[C@@H]3CCN(C(=O)OC4CCCCC4)C3)c2)cn1` [Example 66, cyclohexyl (R)-3-(2-amino-5-(1-methyl-1H-pyrazol-4-yl)nicotinamido)pyrrolidine-1-carboxylate] registered an IC50 of more than 1000 nM.

On to `Cn1cc(-c2cnc(N)c(C(=O)N[C@@H]3CCN(C(=O)Oc4ccc5cc(Br)ccc5c4)C3)c2)cn1` [Example 67, 6-bromonaphthalen-2-yl (R)-3-(2-amino-5-(1-methyl-1H-pyrazol-4-yl)nicotinamido)pyrrolidine-1-carboxylate], for which the IC50 was 100 to 1000 nM.

In the case of `Cn1cc(-c2cnc(N)c(C(=O)N[C@@H]3CCN(C(=O)Oc4cccc5ccccc45)C3)c2)cn1` [Example 68, naphthalen-1-yl (R)-3-(2-amino-5-(1-methyl-1H-pyrazol-4-yl)nicotinamido)pyrrolidine-1-carboxylate], the IC50 is more than 1000 nM.

`Cn1cc(-c2cnc(N)c(C(=O)N[C@@H]3CCN(C(=O)Oc4ccc5ccccc5c4N)C3)c2)cn1` [Example 69, 1-aminonaphthalen-2-yl (R)-3-(2-amino-5-(1-methyl-1H-pyrazol-4-yl)nicotinamido)pyrrolidine-1-carboxylate] registered an IC50 of 100 to 1000 nM.

In the case of `Cn1cc(-c2cnc(N)c(C(=O)N[C@@H]3CCN(C(=O)Oc4ccccc4CO)C3)c2)cn1` [Example 71, 2-(hydroxymethyl)phenyl (R)-3-(2-amino-5-(1-methyl-1H-pyrazol-4-yl)nicotinamido)pyrrolidine-1-carboxylate], the 50% inhibitory concentration (IC50) was more than 1000 nM.

For the molecule `Cn1cc(-c2cnc(N)c(C(=O)N[C@@H]3CCN(C(=O)Oc4ccc5ncccc5c4)C3)c2)cn1` [Example 72, quinolin-6-yl (R)-3-(2-amino-5-(1-methyl-1H-pyrazol-4-yl)nicotinamido)pyrrolidine-1-carboxylate], the IC50 is more than 1000 nM.

`Cn1cc(-c2cnc(N)c(C(=O)N[C@@H]3CCN(C(=O)Oc4cccc5cccnc45)C3)c2)cn1` [Example 73, quinolin-8-yl (R)-3-(2-amino-5-(1-methyl-1H-pyrazol-4-yl)nicotinamido)pyrrolidine-1-carboxylate] showed an IC50 of more than 1000 nM.

Take `CCNc1cc(OC(=O)N2CC[C@@H](NC(=O)c3cc(-c4cnn(C)c4)cnc3N)C2)ccc1C` [Example 74, 3-(ethylamino)-4-methylphenyl (R)-3-(2-amino-5-(1-methyl-1H-pyrazol-4-yl)nicotinamido)pyrrolidine-1-carboxylate]: the IC50 was more than 1000 nM.

`Cn1cc(-c2cnc(N)c(C(=O)N[C@@H]3CCN(C(=O)Oc4ccc(Cl)cc4C4CCCCC4)C3)c2)cn1` [Example 75, 4-chloro-2-cyclohexylphenyl (R)-3-(2-amino-5-(1-methyl-1H-pyrazol-4-yl)nicotinamido)pyrrolidine-1-carboxylate] displayed an IC50 of more than 1000 nM.

For the molecule `CC(=O)Nc1cccc(OC(=O)N2CC[C@@H](NC(=O)c3cc(-c4cnn(C)c4)cnc3N)C2)c1` [Example 76, 3-acetamidophenyl (R)-3-(2-amino-5-(1-methyl-1H-pyrazol-4-yl)nicotinamido)pyrrolidine-1-carboxylate], the IC50 was more than 1000 nM.

The molecule `Cn1cc(-c2cnc(N)c(C(=O)N[C@@H]3CCN(C(=O)Oc4ccc(S(C)(=O)=O)cc4)C3)c2)cn1` [Example 77, 4-(methylsulfonyl)phenyl (R)-3-(2-amino-5-(1-methyl-1H-pyrazol-4-yl)nicotinamido)pyrrolidine-1-carboxylate] displayed an IC50 of more than 1000 nM.

In turn, `CN(C)Cc1ccccc1OC(=O)N1CC[C@@H](NC(=O)c2cc(-c3cnn(C)c3)cnc2N)C1` [Example 78, 2-((dimethylamino)methyl)phenyl (R)-3-(2-amino-5-(1-methyl-1H-pyrazol-4-yl)nicotinamido)pyrrolidine-1-carboxylate] showed an IC50 of more than 1000 nM.

Molecule `Cn1cc(-c2cnc(N)c(C(=O)N[C@@H]3CCN(C(=O)OCc4ccccc4)C3)c2)cn1` [Example 80, benzyl (R)-3-(2-amino-5-(1-methyl-1H-pyrazol-4-yl)nicotinamido)pyrrolidine-1-carboxylate] displayed an IC50 of more than 1000 nM.

As to `Nc1ncc(-c2ccc(CO)cc2)cc1C(=O)N[C@@H]1CCN(C(=O)Oc2cccc(-c3ccccc3)c2)C1` [Example 81, [1,1′-biphenyl]-3-yl (R)-3-(2-amino-5-(4-(hydroxymethyl)phenyl)nicotinamido)pyrrolidine-1-carboxylate], the IC50 lay in the range of 100 to 1000 nM.

The molecule `Nc1ncc(-c2ccc(C(=O)N3CCOCC3)cc2)cc1C(=O)N[C@@H]1CCN(C(=O)Oc2cccc(-c3ccccc3)c2)C1` [Example 83, [1,1′-biphenyl]-3-yl (R)-3-(2-amino-5-(4-(morpholine-4-carbonyl)phenyl)nicotinamido)pyrrolidine-1-carboxylate] yielded an IC50 of 100 to 1000 nM.

`Nc1ncc(-c2ccc(F)c(F)c2)cc1C(=O)N[C@@H]1CCN(C(=O)Oc2cccc(-c3ccccc3)c2)C1` [Example 84, [1,1′-biphenyl]-3-yl (R)-3-(2-amino-5-(3,4-difluorophenyl)nicotinamido)pyrrolidine-1-carboxylate]: the IC50 was more than 1000 nM.

Take `Nc1ncc(Br)cc1C(=O)N[C@@H]1CCN(C(=O)Oc2cccc(-c3ccccc3)c2)C1` [Example 85, [1,1′-biphenyl]-3-yl (R)-3-(2-amino-5-bromonicotinamido)pyrrolidine-1-carboxylate]: the IC50 was more than 1000 nM.

In turn, `Cc1cc(OC(=O)N2CC[C@@H](NC(=O)c3cc(-c4cnn(C)c4)cnc3N)C2)ccc1Cl` [Example 86, 4-chloro-3-methylphenyl (R)-3-(2-amino-5-(1-methyl-1H-pyrazol-4-yl)nicotinamido)pyrrolidine-1-carboxylate] returned an IC50 of more than 1000 nM.

With `Cn1cc(-c2cnc(N)c(C(=O)N[C@@H]3CCN(C(=O)Oc4cccc(C#N)c4)C3)c2)cn1` [Example 87, 3-cyanophenyl (R)-3-(2-amino-5-(1-methyl-1H-pyrazol-4-yl)nicotinamido)pyrrolidine-1-carboxylate], the IC50 was more than 1000 nM.

`Cn1cc(-c2cnc(N)c(C(=O)N[C@@H]3CCN(C(=O)Oc4ccc(Cl)c(Cl)c4)C3)c2)cn1` [Example 88, 3,4-dichlorophenyl (R)-3-(2-amino-5-(1-methyl-1H-pyrazol-4-yl)nicotinamido)pyrrolidine-1-carboxylate] returned an IC50 of more than 1000 nM.

`Cn1cc(-c2cnc(N)c(C(=O)N[C@@H]3CCN(C(=O)Oc4ccc(N)c(Cl)c4)C3)c2)cn1` [Example 89, 4-amino-3-chlorophenyl (R)-3-(2-amino-5-(1-methyl-1H-pyrazol-4-yl)nicotinamido)pyrrolidine-1-carboxylate] gave a 50% inhibitory concentration (IC50) of more than 1000 nM.

`Cn1cc(-c2cnc(N)c(C(=O)N[C@@H]3CCN(C(=O)Oc4cc(F)cc(F)c4)C3)c2)cn1` [Example 90, 3,5-difluorophenyl (R)-3-(2-amino-5-(1-methyl-1H-pyrazol-4-yl)nicotinamido)pyrrolidine-1-carboxylate]: the IC50 was more than 1000 nM.

In turn, `Cc1cc(C)cc(OC(=O)N2CC[C@@H](NC(=O)c3cc(-c4cnn(C)c4)cnc3N)C2)c1` [Example 91, 3,5-dimethylphenyl (R)-3-(2-amino-5-(1-methyl-1H-pyrazol-4-yl)nicotinamido)pyrrolidine-1-carboxylate] showed an IC50 of more than 1000 nM.

In turn, `COC(=O)c1ccccc1OC(=O)N1CC[C@@H](NC(=O)c2cc(-c3cnn(C)c3)cnc2N)C1` [Example 92, 2-(methoxycarbonyl)phenyl (R)-3-(2-amino-5-(1-methyl-1H-pyrazol-4-yl)nicotinamido)pyrrolidine-1-carboxylate] gave an IC50 of more than 1000 nM.

In turn, `CCc1ccc(OC(=O)N2CC[C@@H](NC(=O)c3cc(-c4cnn(C)c4)cnc3N)C2)cc1` [Example 93, 4-ethylphenyl (R)-3-(2-amino-5-(1-methyl-1H-pyrazol-4-yl)nicotinamido)pyrrolidine-1-carboxylate] returned an IC50 of 100 to 1000 nM.

Values taken from patent publication US12378224B2 (Dong-A Socio Holdings Co., Ltd., priority 2016, dated 2025).
